This note sets out measurements from patent publication US11078216B2, “Bisaryl amides as NRF2 activators” (GLAXOSMITHKLINE INTELLECTUAL PROPERTY DEVELOPMENT LIMITED, priority 2016, dated 2021).

The experiment relates to NRF2 (NQO1 activity as marker for NRF2 activation), BEAS-2B cells. The experiment can be described thus: BEAS-2B NQO1 MTT Assay. Type of experiment: cell-based. As to conditions: Homo sapiens, EC50 of NQO1 specific activity induction, 48 hours incubation, read-out: EC50. The source says: NAD(P)H:quinone oxidoreductase 1 (NQO1), also called DT diaphorase, is a homodimeric FAD-containing enzyme that catalyzes obligatory NAD(P)H-dependent two-electron reductions of quinones and protects cells against the toxic and neoplastic effects of free radicals and reactive oxygen species arising from one-electron reductions. The transcription of NQO1 is finely regulated by NRF2, and thus NQO1 activity is a good marker for NRF2 activation. On day one, frozen BEAS-2B cells (ATCC) are thawed in a water bath, counted, and re-suspended at a concentration of 250,000 cells/mL. Fifty microliters of cells are plated in 384 well black clear-bottomed plates. Plates are incubated at 37° C., 5% CO2 overnight. On day two, plates are centrifuged and 50 nL of compound or controls are added to the cells. Plates are then incubated at 37° C., 5% CO2 for 48 hours. On day four, medium is aspirated from the plate and crude cell lysates are made by adding 13 uL of 1× Cell Signaling Technologies lysis buffer with 1 Complete, Mini, EDTA-free Protease Inhibitor Tablet (Roche) for each 10 mL of lysis buffer. After lysis plates are incubated for 20 minutes at room temperature. Two microliters of lysate are removed for use in Cell Titer Glo assay (Promega) and MTT cocktail is prepared (Prochaska et. al. 1998) for measurement of NQO1 activity. Fifty microliters of MTT cocktail is added to each well, plate is centrifuged, and analyzed on an Envision plate reader (Perkin Elmer) using Absorbance 570 nm label for 30 minutes. Product formation is measured kinetically and the EC50 of NQO1 specific activity induction is calculated by plotting the change in absorbance (Delta OD/min) versus the log of compound concentration followed by 3-parameter fitting.
EC50s<1 nM (+++++), EC50s 1 nM-10 nM (++++), EC50s 10 nM-100 nM (+++), EC50s 100 nM-1 uM (++), EC50s 1-10 uM (+), EC50s>10 uM (−), or were not determined (ND).

The structures appear in SMILES notation.

For the molecule `CC[C@@H]1CN(Cc2cc(C(CC(=O)Nc3cccnc3)c3ccc(C#N)cc3C)ccc2C)S(=O)(=O)c2cccnc2O1` (single isomer, unassigned) [Example 69], the EC50 is 100 to 1000 nM. For the molecule `CC[C@@H]1CN(Cc2cc([C@H](CC(=O)Nc3cccnc3)c3ccc4c(nnn4CC)c3C)ccc2C)S(=O)(=O)c2cccnc2O1` [Example 1, (S)-3-(3-(((R)-4-Ethyl-1,1-dioxido-3,4-dihydro-2H-pyrido[2,3-b][1,4,5]oxathiazepin-2-yl)methyl)-4-methylphenyl)-3-(1-ethyl-4-methyl-1H-benzo[d][1,2,3]triazol-5-yl)-N-(pyridin-3-yl)propanamide], the EC50 lay within 10 to 100 nM.

For `CC[C@@H]1CN(Cc2cc([C@H](CC(=O)Nc3cnsc3)c3ccc4c(nnn4CC)c3C)ccc2C)S(=O)(=O)c2cccnc2O1` [Example 2, (S)-3-(3-(((R)-4-Ethyl-1,1-dioxido-3,4-dihydro-2H-pyrido[2,3-b][1,4,5]oxathiazepin-2-yl)methyl)-4-methylphenyl)-3-(1-ethyl-4-methyl-1H-benzo[d][1,2,3]triazol-5-yl)-N-(isothiazol-4-yl)propanamide], the EC50 is 10 to 100 nM. With `CC[C@@H]1CN(Cc2cc([C@H](CC(=O)NCc3ncco3)c3ccc4c(nnn4CC)c3C)ccc2C)S(=O)(=O)c2cccnc2O1` [Example 3, (S)-3-(3-(((R)-4-Ethyl-1,1-dioxido-3,4-dihydro-2H-pyrido[2,3-b][1,4,5]oxathiazepin-2-yl)methyl)-4-methylphenyl)-3-(1-ethyl-4-methyl-1H-benzo[d][1,2,3]triazol-5-yl)-N-(oxazol-2-ylmethyl)propanamide], the EC50 was in the range of 100 to 1000 nM.

Take `CC[C@@H]1CN(Cc2cc([C@H](CC(=O)NC3COC3)c3ccc4c(nnn4CC)c3C)ccc2C)S(=O)(=O)c2cccnc2O1` [Example 4, (S)-3-(3-(((R)-4-Ethyl-1,1-dioxido-3,4-dihydro-2H-pyrido[2,3-b][1,4,5]oxathiazepin-2-yl)methyl)-4-methylphenyl)-3-(1-ethyl-4-methyl-1H-benzo[d][1,2,3]triazol-5-yl)-N-(oxetan-3-yl)propanamide]: the EC50 was 100 to 1000 nM. Turning to `CC[C@@H]1CN(Cc2cc([C@H](CC(=O)NC3CCS(=O)(=O)C3)c3ccc4c(nnn4CC)c3C)ccc2C)S(=O)(=O)c2cccnc2O1` (stereo partly drawn) [Example 5, (3S)-N-(1,1-Dioxidotetrahydrothiophen-3-yl)-3-(3-(((R)-4-ethyl-1,1-dioxido-3,4-dihydro-2H-pyrido[2,3-b][1,4,5]oxathiazepin-2-yl)methyl)-4-methylphenyl)-3-(1-ethyl-4-methyl-1H-benzo[d][1,2,3]triazol-5-yl)propanamide], the EC50 lay within 100 to 1000 nM. As for `CC[C@@H]1CN(Cc2cc([C@H](CC(=O)n3ccc(N)n3)c3ccc4c(nnn4CC)c3C)ccc2C)S(=O)(=O)c2cccnc2O1` [Example 6, (S)-1-(3-Amino-1H-pyrazol-1-yl)-3-(3-(((R)-4-ethyl-1,1-dioxido-3,4-dihydro-2H-pyrido[2,3-b][1,4,5]oxathiazepin-2-yl)methyl)-4-methylphenyl)-3-(1-ethyl-4-methyl-1H-benzo[d][1,2,3]triazol-5-yl)propan-1-one], the 50% effective concentration (EC50) lay in the range of 1 to 10 nM. As to `CC[C@@H]1CN(Cc2cc([C@H](CC(=O)n3nccc3N)c3ccc4c(nnn4CC)c3C)ccc2C)S(=O)(=O)c2cccnc2O1` [Example 7, (S)-1-(5-Amino-1H-pyrazol-1-yl)-3-(3-(((R)-4-ethyl-1,1-dioxido-3,4-dihydro-2H-pyrido[2,3-b][1,4,5]oxathiazepin-2-yl)methyl)-4-methylphenyl)-3-(1-ethyl-4-methyl-1H-benzo[d][1,2,3]triazol-5-yl)propan-1-one], the EC50 lay within 1 to 10 nM.

`CC[C@@H]1CN(Cc2cc([C@H](CC(=O)NCc3ncc[nH]3)c3ccc4c(nnn4CC)c3C)ccc2C)S(=O)(=O)c2cccnc2O1` [Example 8, (S)-N-((1H-Imidazol-2-yl)methyl)-3-(3-(((R)-4-ethyl-1,1-dioxido-3,4-dihydro-2H-pyrido[2,3-b][1,4,5]oxathiazepin-2-yl)methyl)-4-methylphenyl)-3-(1-ethyl-4-methyl-1H-benzo[d][1,2,3]triazol-5-yl)propanamide]: the EC50 lay in the range of 100 to 1000 nM.

As usually defined, the EC50 is the concentration giving half of the maximal effect.
